Data as given in PMC2921400 (PLoS ONE, 2010).
Values joined by “and” are separate entries in the source; they are usually repeats but may differ in a detail not shown here. Equal entries are not always repeated. Where two headings read alike, the source gives them in different places.

Tests used:
[1] = target: T1, soluble extracellular portion of CD4 (sCD4) (Homo sapiens, UniProt P01730); assay: sCD4 tryptophan fluorescence titration; assay type: binding; conditions: for Kd: pH 7.4, single site binding isotherm; for quenching of sCD4 tryptophan fluorescence / red shift of the emission peak: saturating concentrations of PA analog
T1 construct: soluble extracellular portion of CD4 (sCD4); purchased Progenics Pharmaceuticals, Inc
Protocol: The tryptophan fluorescence of the soluble extracellular portion of CD4 (sCD4) was used to estimate binding affinity of PA analogs for sCD4 in-vitro (Figure 2).
Figure 2 In vitro experiments of PA analogs binding to sCD4. Binding isotherm of the sCD4 tryptophan fluorescence at the wavelength of 350 nm with the increasing concentration of A) 2-BP, B) 6-AP, and C) SP; D) stoichiometric binding of 2-BP to sCD4. Tryptophan fluorescence was measured using an excitation wavelength of 280 nm. In all cases, we observed tryptophan fluorescence quenching of sCD4 by the increasing concentration of PA analogs. During stoichiometric binding experiment the concentration of sCD4 was kept at 200 nM, which is well above the dissociation constant of 2-BP-sCD4, 74 nM. Curve fitting (OriginLab) was performed to find the best values for Kd using a single site binding isotherm approximation.
Since PA analogs form micelles at micromolar concentration it was important to characterize binding stoichiomentry of PA analogs to CD4 (Figure 2D). […] The concentration of sCD4 was kept at 200 nM, which is well above the 74 nM dissociation constant of 2-BP-CD4. In this case, titrated 2-BP was fully bound. The observed changes in sCD4 fluorescence would level off when 2-BP-sCD4 reached proper stoichiometry.
Measurements were performed on a Fluorolog-3 fluorescence spectrophotometer (HORIBA Jobin Yvon) at 25°C in a 1-ml stirred cuvette. For fluorescence titration experiments, 100 nM of sCD4 dissolved in 10 mM phosphate buffer [pH 7.4] and 250 mM NaCl was used, and 100 µM solution of PA analogs, 2-BP, 6-AP, and SP dissolved in dimethylsulfoxide (DMSO) was added in 10 nM steps. Titrations in the absence of sCD4 and in the absence PA analogs were performed as reference. Tryptophan fluorescence was measured using an excitation wavelength of 280 nm. The fluorescence emission signal was subtracted from the signal of the reference titrations, and the differences adjusted by the dilution factor were plotted against the final concentration of added PA analogs. Curve fitting (OriginLab) was performed to find the best values for Kd using a single site binding isotherm approximation.

gp120 (IIIB)-CD4 complex = target: T2, gp120 (IIIB)-CD4 complex (Homo sapiens, UniProt P01730); assay: gp120 capture ELISA, inhibition of gp120-CD4 complex formation; assay type: binding, HIV-1
T2 construct: soluble extracellular portion of CD4 (sCD4); purchased ImmunoDiagnostics, Inc., MA
Protocol: Figure 3 Inhibition of gp120-CD4 complex formation. Inhibition of gp120-CD4 complex formation was investigated by gp120 capture ELISA. […] Strepavidin-HRP was added, and then developed by addition of o-Phenylenediamine dihydrochloride (OPD) substrate. Colorimetric reaction was stopped by adding 1N HCl, and read at 490 nm. Percent of gp120-CD4 binding was calculated from gp120-CD4 complex formation in the absence of any inhibitor. pKi (-log Ki, M) was calculated and plotted in Prizm (GraphPad Software), and inhibition constant, Ki, was calculated by using the equation Ki = IC50/(1+[CD4]/Kd), based on IC50 concentration of bound CD4, [CD4] = 50 nM, and CD4 binding affinity for gp120, Kd = 5 nM. Representative of three experiments, all data are mean ± SD.
Inhibition of gp120-CD4 complex formation was investigated by CD4-to-gp120 capture ELISA, in accordance with manufacturer's instructions (ImmunoDiagnostics, Inc., MA), and as previously described. […] Strepavidin-HRP was added, and then developed by addition of OPD substrate. Colorimetric reaction was stopped by adding 1N HCl, and read at 490 nm. Percent of gp120-CD4 binding was calculated from gp120-CD4 complex formation in the absence of any inhibitor.

[2] = MTT viability assay in 1G5 cells; assay type: cell-based; conditions: human, 1G5 cells, 100 to 10,000 nM, up to 72 h, vs untreated mock control
Protocol: (§1) To ascertain possible toxicity of PA analogs, we tested each analog in cell culture system (Figure 4). 1G5 cells were treated with increasing concentrations of 2-BP, 6-AP, or SP, from 100 to 10,000 nM, and viability was determined by MTT assay at 24 h. (not shown) and at 72 h (Figure 4). Viability for all treatments and at all concentrations tested, remained ≥92% for up to 72 h. of follow-up.
(§2) Figure 4 Viability of PA analogs in tissue culture. 1G5 cells were treated with increasing concentrations of 2-BP, 6-AP, and SP, as indicated, and cell viability was determined 72 h. after treatment by MTT assay. % Viable cells were calculated from untreated mock control, which was taken as 100% viable. Bars indicate ± SD, representative of 2 experiments.
(§3) For determination of viability, 1G5 cells were seeded in 12 well plates at 1×10^6 cells/well, treated with increasing concentrations of PA analogs, from 100 to 10,000 nM (0.1 to 10 µM), as indicated. After 24 and 72 hours, cells were collected and analyzed for viability by a CellTiter 96 Non-Radioactive Cell Proliferation Assay [(3-(4,5-Dimethyl-2-thiazolyl)-2,5 dephenyltetrazolium, Promega,] (MTT) assay, as specified by the manufacturer, and as previously described.

[3] = critical micelle concentration by 1D proton NMR; assay type: physicochemical
soluble gp120 = target: T3, soluble gp120 (Human immunodeficiency virus type 1 group M subtype B, UniProt P03375); assay: reverse ELISA: plates coated with sCD4, gp120 incubated with compound; assay type: binding, HIV-1; conditions: plates coated with sCD4, gp120 incubated with increasing concentrations (not shown)
T3 construct: purchased

CD4 receptor = conditions: cited from earlier work
gp120-to-CD4 attachment = target: gp120-to-CD4 attachment; set-up: method as in submitted for publication; conditions: ref submitted for publication; read-out: Ki for blocking gp120-to-CD4 attachment; cited from earlier work
gp120 = conditions: cited from earlier work
R5-tropic HIV-1 [4] = conditions: primary PBL and macrophages; read-out: IC50 of productive R5-tropic HIV-1 infection; cited from earlier work
X4-tropic HIV-1 = conditions: primary PBL and macrophages; read-out: IC50 of productive X4-tropic HIV-1 infection; cited from earlier work
R5-tropic HIV-1 [5] = tested on: R5-tropic HIV-1; set-up: method as in submitted for publication; conditions: ref submitted for publication, cited from earlier work
1G5 cells = assay: MTT viability assay in 1G5 cells; assay type: cell-based; conditions: 100 to 10,000 nM, up to 72 h, vs untreated mock control
Protocol: as §1, §2, §3

[6] = 100 nM sCD4, 25°C, read-out: Kd, dissociation constant for sCD4
[7] = Ki = IC50/(1+[CD4]/Kd), [CD4] = 50 nM, Kd = 5 nM, read-out: Ki, inhibition constant for gp120-CD4 complex formation

Molecule | Kd [1, 6] | quenching of sCD4 tryptophan fluorescence [1] | red shift of the emission peak [1] | Ki (gp120 (IIIB)-CD4 complex; Ki, inhibition constant for gp120-CD4 complex formation, Ki = IC50/(1+[CD4]/Kd), [CD4] = 50 nM, Kd = 5 nM) | viability [2] | cmc, critical micelle concentration [3] | inhibition of gp120-CD4 complex formation in reverse experiment (soluble gp120) | Kd ([1]; Kd, dissociation constant for sCD4, 100 nM sCD4, 25°C) | concentration at which fluorescence quenching was saturated ([1]; stoichiometric titration, sCD4 kept at 200 nM) | Ki (gp120 (IIIB)-CD4 complex; [7]) | Ki (gp120 (IIIB)-CD4 complex; pKi (-log Ki, M), gp120 (IIIB), 50 nM biotin-sCD4, mean ± SD) | Kd (CD4 receptor) | Ki (gp120-to-CD4 attachment) | binding to gp120 (gp120) | IC50 (R5-tropic HIV-1 [4]) | IC50 (X4-tropic HIV-1) | inhibition of R5-tropic HIV-1 infection (R5-tropic HIV-1 [5]; cervical explant model of human vagina and submucosa primary PBL and macrophage cells) | toxicity in cervical explant model (R5-tropic HIV-1 [5]; cervical explant model of human vagina) | pKi (-log Ki, M) (gp120 (IIIB)-CD4 complex; gp120 (IIIB), 50 nM biotin-sCD4, mean ± SD) | viability (1G5 cells)
CCCCCCCCCCCCCCCC(=O)OC[C@H](O)[C@H]1OC(=O)C(O)=C1O [6-AP, 6-O-Palmitoyl-L-ascorbic acid] | 140 nM and ~140 nM | 40% | 3 nm | 354 nM and ~354 nM | ≥ 92% | 7 µM | not inhibited |  |  |  |  |  |  |  |  |  |  |  |  | 
CCCCCCCCCCCCCCC(Br)C(=O)O (centres unmarked) [2-BP, 2-Bromohexadecanoic acid] |  | 50% | 4 nm |  | ≥ 92% | 5 µM | not inhibited | 74 nM and ~74 nM | 200 µM | 122 nM and ~122 nM | 120 nM |  |  |  |  |  |  |  |  | 
CCCCCCCCCCCCCCCC(=O)O [PA, Palmitic acid] |  |  |  |  |  | 4 µM |  |  |  |  |  | ~1500 nM | ~2530 nM | does not bind to gp120 | ~33000 nM | ~340 nM | inhibited | without toxicity |  | 
Sucrose palmitate [SP] | 364 nM and ~364 nM | 60% | 5 nm |  |  | 30 µM | not inhibited |  |  | 1490 nM and ~1490 nM |  |  |  |  |  |  |  |  | 5.83 ± 0.15 | ≥ 92%
